Assay results reported in patent US20250041175A1, “COMPOSITION FOR SMOOTHING THE SKIN AND/OR THE LIPS” (L V M H RECHERCHE, priority 2021, published 2025).

Test: Penetration of polyglycerols into the layers of the skin, 7T-MALDI-FT-ICR mass spectrometry imaging (MSI)
Type: in vitro ADME
Settings: sections of human skin, preliminary study

Substance | depth of penetration at the surface layers of the skin (epidermis and superficial dermis) | penetration speed of polyglycerols
polyglycerol-3 | reaches the superficial dermis very quickly | penetrates rapidly
polyglycerol-4 | stationed in the superficial dermis | penetrates more quickly
Polyglycerol-5 | penetrate less deeply than polyglycerol-3 or polyglycerol-4 | –
